Data on three compounds can be found in publication PMC11653243, “Enhancing Phototoxicity in BODIPY‐Perylene Charge Transfer Dyads by Combined Iodination and Mesylation” (Chemistry (Weinheim an Der Bergstrasse, Germany), 2024).

pIC50: −log10 of the molar value. Like-named read-outs stand apart in the source and are kept apart here.

The subject of test [1] is MCF‐7 cells. More on the design: method as in PMID 36807947. Particulars: 470 nm LED, 17±1.64 J/cm^2, published previously, read-out: Light IC50 (converted); cited from earlier work.
Test [2] has as its system HeLa cells. More on the design: method as in PMID 31743947. Particulars: 9.6 J/cm^2, 500 nm irradiation; cited from earlier work.
Test [3] relates to CHO cells. The test is described as follows: Hypoxic phototoxicity (CoCl2 induced hypoxia). It counts as cell-based, Chinese Hamster. The note with it: Cricetulus griseus, 300 μM CoCl2 4 h, 470 nm LED, maximum 1 μM tested, read-out: hypoxic IC50 (light). Here is the method: (§1) Cobalt chloride (CoCl2), a popular chemical hypoxia inducer, was added to the cells (after incubation with B2PI or MB2PI) at a total concentration of 300 μM CoCl2 in media and incubated for 4 h to mimic hypoxic conditions. In comparison to low‐oxygen induced hypoxia, this method stabilises hypoxia inducible factor 1 alpha subunit (HIF‐1α) for some hours after treatment, allowing a greater window for the phototoxicity studies.[52] We have previously confirmed the chemical induction of hypoxia with CoCl2 using an enzyme linked immunosorbent assay to detect HIF‐1α in cell lysates.[53] The cells were irradiated immediately upon removal of the media/CoCl2 solution as per the normoxic phototoxicity protocol.
(§2) Dark‐ and photo‐toxicity studies were performed by seeding CHO and MCF‐7 cells in clear 96‐well plates (Nunc) and treating with varying concentrations of B2P, MB2P, B2PI and MB2PI. Phototoxicity experiments were carried out using a 470 nm LED. For hypoxic phototoxicity studies, hypoxia was mimicked by adding CoCl2 to the cells prior to irradiation. Cell viability was determined using the alamar blue assay and absorbance measured with a BMG LABTECH CLARIOstar plate reader.
(§3) Hypoxic Phototoxicity Studies
(§4) Hypoxic phototoxicity studies were performed as per routing phototoxicity protocol. Hypoxia […]
(§5) A 1 M stock of CoCl2 in sterile 1X PBS […]

Test [4] concerns MCF‐7 cells. The test is described as follows: Hypoxic phototoxicity (CoCl2 induced hypoxia). It counts as cell-based. Particulars: Homo sapiens, MCF7, 300 μM CoCl2 4 h, 470 nm LED, maximum 1 μM tested, read-out: hypoxic IC50 (light). Here is the method:
as §1, §2, §3, §4, §5

In test [5] the test system is CHO cells. The test is described as follows: ROS imaging with H2DCFDA in live cells. Particulars: 30 μM, 17 h; 488 nm (0.38 mW/cm^2) for 5 minutes. It counts as cell-based, Chinese Hamster. The protocol: To study the production of ROS in a live cell environment a commercial ROS dye, H2DCFDA was used. CHO and MCF‐7 cells were incubated with MB2PI (30 μM, 17 h), washed with PBS and co‐stained with H2DCFDA (5 μM, 30 min). To ensure no photoactivation of MB2PI, emission from H2DCFDA was collected alone prior to the excitation of the BODIPY. The complex was then irradiated continuously at 488 nm (0.38 mW/cm^2) for 5 minutes. […] Weak emission of H2DCFDA was observed prior to irradiation, consistent with the low cytotoxicity of the complex. However, after irradiation, the fluorescence intensity of the ROS dye increases dramatically indicating ROS production, consistent with the high phototoxicity of MB2PI in both test cell lines. The higher phototoxicity of MB2PI in MCF‐7 cells restricted the ROS imaging study to CHO cells as the MCF‐7 cells began to die rapidly upon irradiation. Controls completed by adding H2DCFDA in test cells without MB2PI confirmed no ROS production with or without irradiation at 488 nm.
Figure S32. DPBF (10 mM) 1O2 scavenger assay with B2P, MB2P, B2PI or MB2PI in methanol from 0-210 seconds irradiation, where absorbance at 410 nm was recorded every 30 seconds.
CHO and MCF-7 cells were treated with MB2PI (30 µM, 17 h) for the ROS imaging studies. […]
A 63x oil immersion objective was used to acquire images. The irradiance was determined using a power meter from Edmund Optics. […]

Turning to `CC1=C(I)C(C)=[N+]2C1=C(c1ccccc1)c1c(C)c(-c3ccc4c5cccc6cccc(c7cccc3c74)c65)c(C)n1[B-]2(F)F` [B2PI], the IC50 in test [1] was 235 nM. Regarding `CC1=CC(C)=[N+]2C1=C(c1ccccc1)c1c(C)c(-c3ccc4c5cccc6cccc(c7cccc3c74)c65)c(C)n1[B-]2(F)F` [B2P], the “phototoxic index (PI)” value in test [2] is given as 1041. As for `CC1=C(c2ccc3c4cccc5cccc(c6cccc2c63)c54)C(C)=[N+]2C1=C(c1c(C)cc(C)cc1C)c1c(C)c(I)c(C)n1[B-]2(F)F` [MB2PI], the pIC50 in test [3] and in test [4] was < 6.00 each time. The “ROS production (H2DCFDA fluorescence) after irradiation” value in test [5] was “increased production of ROS”.
